Source: US20260098046A1, “RIFABUTIN ANALOGS FOR THE TREATMENT OF DISEASE” (BIOVERSYS AG, priority 2022, published 2026)
Converted amounts (≈) assume the structure as drawn. Read-outs that look alike come from different tables or passages of the source.

Legend:
Assay type in all cases: cell-based
M. xenopi (ATCC19250) = test: MIC by broth microdilution (CLSI) against M. xenopi; conditions: Mycobacterium xenopi, 168 h, cation adjusted Mueller Hinton broth + ADC (5%), 37° C. for 7 days (at least), read-out: In vitro activity (MIC) M. xenopi
Experimental: (§1) MIC values were determined by broth microdilution method according to the CLSI guideline. Unless otherwise mentioned, MIC against A. baumannii was performed in RPMI medium supplemented with 10% FCS. MIC against M. abscessus was performed in Middlebrook 7H9 broth supplemented with Middlebrook ADC growth supplement (10%). All other MIC were performed in standard cation adjusted Mueller Hinton broth, supplemented with Middlebrook ADC growth supplement (5%) for the slow growing mycobacteria (M. xenopi, M. kansasii and M. avium).
(§2) The following procedure applies to all species tested, except for M. xenopi. From a fresh culture plate (from overnight to several days depending on the bacteria), cells were resuspended in 0.9% (w/v) saline solution and bacterial inoculum was prepared in the respective testing medium with 5×10^5 CFU/mL. For M. xenopi, the inoculum was prepared from a fresh liquid culture (7H9+ADC). The appropriate volumes of a 10 mg/mL compound solution were directly dispensed in the 96-well assay plate using a digital dispenser to create two-fold dilution series from 32 to 0.002 μg/mL final concentration for A. baumannii and S. aureus; from 16 to 0.016 μg/mL for M. abscessus and M. avium; and from 1 to 6×10^−5 μg/mL for M. kansasii and M. xenopi. 100 μL of bacterial suspension was finally added to the compounds. Plates were covered and incubated without shaking at 35° C. for 20 hours for A. baumanii and S. aureus; at 30° C. for 4 days for M. abscessus; and at 37° C. for 7 days (at least) for M. kansasii (covered with aluminum foil to avoid light exposure), M. avium and M. xenopi. Every experiment contained an antibiotic as quality control. MIC was determined visually as the lowest concentration of a compound that prevents visible growth of the bacteria.
(§3) The in vitro activity of compounds described herein was determined against S. aureus (UAMS-1625 strain), A. baumannii (HUMC1 strain), M. abscessus (ATCC 19977), M. kansasii (ATCC12478), M. avium (ATCC25291), and M. xenopi (ATCC19250).

M. avium (ATCC25291) = test: MIC by broth microdilution (CLSI) against M. avium; conditions: Mycobacterium avium, 168 h, cation adjusted Mueller Hinton broth + ADC (5%), 37° C. for 7 days (at least), read-out: In vitro activity (MIC) M. avium
Experimental: as §1, §2, §3

[1] = test system: A. baumannii (HUMC1 strain); test: MIC by broth microdilution (CLSI) against A. baumannii; conditions: Acinetobacter baumannii, RPMI medium supplemented with 10% FCS, 35° C. for 20 hours, read-out: In vitro activity (MIC) A. baumannii
Experimental: as §1, §2, §3

M. kansasii (ATCC12478) = test: MIC by broth microdilution (CLSI) against M. kansasii; conditions: Mycobacterium kansasii, 168 h, cation adjusted Mueller Hinton broth + ADC (5%), 37° C. for 7 days (at least), read-out: In vitro activity (MIC) M. kansasii
Experimental: as §1, §2, §3

[2] = test system: M. abscessus (ATCC 19977); test: MIC by broth microdilution (CLSI) against M. abscessus; conditions: Mycobacteroides abscessus
Experimental: as §1, §2, §3

[3] = test system: S. aureus (UAMS-1625 strain); test: MIC by broth microdilution (CLSI) against S. aureus; conditions: Staphylococcus aureus, 20 h, read-out: In vitro activity (MIC) S. aureus
Experimental: as §1, §2, §3

[4] = ATCC19977, 96 h, ATCC 19977, Middlebrook 7H9 broth + ADC (10%), 30° C. for 4 days, read-out: In vitro activity (MIC) M. abscessus

| Compound | MIC (M. xenopi (ATCC19250)) [µg/mL] | MIC (M. avium (ATCC25291)) [µg/mL] | MIC [1] [µg/mL] | MIC (M. kansasii (ATCC12478)) [µg/mL] | MIC [2, 4] [µg/mL] | MIC [3] [µg/mL] | MIC ([2]; ATCC19977, tested M. abscessus strains, read-out: MIC value on M. abscessus) [µg/mL] |
| --- | --- | --- | --- | --- | --- | --- | --- |
| CO[C@H]1/C=C/O[C@@]2(C)Oc3c(C)c(O)c4c(c3C2=O)C2=NC3(CCN(CC(C)C)CC3)NC2=C(NC(=O)/C(C)=C\C=C\[C@H](C)[C@H](O)[C@@H](C)[C@@H](O)[C@@H](C)[C@H](OC(=O)Cn2cc(CCc3ccccc3)nn2)[C@@H]1C)C4=O [Compound 9] | 0.03 | 0.06 | 0.03 (≈ 0.0295 µM) | 0.002 | 0.25 | 0.5 (≈ 0.491 µM) |  |
| CO[C@H]1/C=C/O[C@@]2(C)Oc3c(C)c(O)c4c(c3C2=O)C2=NC3(CCN(CC(C)C)CC3)NC2=C(NC(=O)/C(C)=C\C=C\[C@H](C)[C@H](O)[C@@H](C)[C@@H](O)[C@@H](C)[C@H](OC(=O)Cn2cc(CN(C)Cc3ccccc3)nn2)[C@@H]1C)C4=O [Compound 12] | 0.03 | 0.03 | 0.008 (≈ 0.00764 µM) | 0.004 | 0.25 | 0.125 (≈ 0.119 µM) |  |
| CO[C@H]1/C=C/O[C@@]2(C)Oc3c(C)c(O)c4c(c3C2=O)C2=NC3(CCN(CC(C)C)CC3)NC2=C(NC(=O)/C(C)=C\C=C\[C@H](C)[C@H](O)[C@@H](C)[C@@H](O)[C@@H](C)[C@H](OC(=O)Cn2cc(C3CCCCC3)nn2)[C@@H]1C)C4=O [Compound 26] | 0.03 | 0.03 | 0.016 (≈ 0.0161 µM) | 0.002 | 0.25 | 0.125 (≈ 0.125 µM) |  |
| CO[C@H]1/C=C/O[C@@]2(C)Oc3c(C)c(O)c4c(c3C2=O)C2=NC3(CCN(CC(C)C)CC3)NC2=C(NC(=O)/C(C)=C\C=C\[C@H](C)[C@H](O)[C@@H](C)[C@@H](O)[C@@H](C)[C@H](OC(C)=O)[C@@H]1C)C4=O [Rifabutin, rifabutin] | 0.03 | 0.125 | ≤ 0.002 | 0.001 | 8 | 0.016 (≈ 0.0189 µM) | 8 (≈ 9.44 µM) |
